In patent US20210122763A1, “OGA INHIBITOR COMPOUNDS” (Janssen Pharmaceutica NV, priority 2018, published 2021):

Assays:
[1] = target: T1, recombinant human Meningioma Expressed Antigen 5 (MGEA5), also referred to as O-GlcNAcase (OGA) (Homo sapiens, UniProt O60502); assay: OGA biochemical assay (inhibition of FM-GlcNAc hydrolysis, fluorescence); conditions: for Emax: read-out: Enzymatic Emax (%); for IC50: read-out: Enzymatic hOGA, pIC50 (converted)
T1 construct: Full length OGA enzyme was purchased at OriGene (cat #TP322411); purchased OriGene TP322411
T1 sequence (O60502 1-916): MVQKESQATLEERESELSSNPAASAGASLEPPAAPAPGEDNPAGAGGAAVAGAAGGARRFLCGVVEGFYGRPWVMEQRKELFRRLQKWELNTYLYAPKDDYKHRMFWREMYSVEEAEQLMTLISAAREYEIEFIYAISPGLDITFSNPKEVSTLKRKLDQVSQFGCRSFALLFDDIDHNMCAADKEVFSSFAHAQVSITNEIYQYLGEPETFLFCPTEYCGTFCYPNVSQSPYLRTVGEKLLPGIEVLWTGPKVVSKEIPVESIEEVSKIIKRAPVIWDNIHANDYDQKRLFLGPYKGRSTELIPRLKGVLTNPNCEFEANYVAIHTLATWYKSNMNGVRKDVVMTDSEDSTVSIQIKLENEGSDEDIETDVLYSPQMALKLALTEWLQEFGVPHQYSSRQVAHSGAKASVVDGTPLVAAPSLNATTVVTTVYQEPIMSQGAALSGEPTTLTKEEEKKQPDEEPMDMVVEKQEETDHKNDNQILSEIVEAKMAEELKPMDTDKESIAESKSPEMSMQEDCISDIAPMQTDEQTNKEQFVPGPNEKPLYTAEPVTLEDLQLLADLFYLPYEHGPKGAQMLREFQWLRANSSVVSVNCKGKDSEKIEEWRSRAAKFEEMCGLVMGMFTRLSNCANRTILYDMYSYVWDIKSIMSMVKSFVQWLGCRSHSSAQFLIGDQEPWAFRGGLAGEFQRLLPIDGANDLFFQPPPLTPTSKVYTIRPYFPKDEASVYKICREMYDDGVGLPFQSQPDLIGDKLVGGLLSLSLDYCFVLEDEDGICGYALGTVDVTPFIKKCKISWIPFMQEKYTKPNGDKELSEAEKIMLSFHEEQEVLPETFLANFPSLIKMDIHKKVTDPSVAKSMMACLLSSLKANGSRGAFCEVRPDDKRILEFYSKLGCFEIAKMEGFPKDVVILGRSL
In short: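 Full-length OGA at 2 nM was pre-incubated 60 min at room temperature with compound, then FM-GlcNAc at 100 uM final was added in citrate/phosphate buffer pH 7.2 with 0.005% Tween-20. After 6 h at room temperature, carbonate pH 11.0 stopped the reaction. Fluorescence read at 485/538 nm; IC50 and Hill coefficient from curve fit against no-inhibitor and saturating-standard controls.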

[2] = target: T2, OGA (Homo sapiens, UniProt O60502); assay: OGA cellular assay (ICC detection of O-GlcNAcylated proteins in HEK293 cells inducible for P301L mutant human Tau); assay type: cell-based; conditions: 6 hours incubation; for Emax: HEK293, HEK293 cells inducible for P301L mutant human Tau; for Emax / Cellular Emax (%): maximum = Thiamet G 200 uM; for EC50 / Cellular Emax (%): HEK293 cells inducible for P301L mutant human Tau; for EC50: read-out: Cellular hOGA, pEC50 (converted)
T2 construct: HEK293 cells inducible for P301L mutant human Tau (isoform 2N4R) were established at Janssen; endogenous in cells; host or cells: HEK293 cells inducible for P301L mutant human Tau (2N4R)
T2 sequence (O60502 1-916): T1 sequence (O60502 1-916)
In short: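 HEK293 cells with inducible P301L 2N4R Tau, seeded in low-glucose medium, were exposed to compounds for 6 hours (0.2% DMSO), then PFA-fixed and stained with CTD110.6. Imaging intensity at 488 nm measured O-GlcNAcylation, with Hoechst nuclei counts for toxicity. IC50s came from non-linear regression, with Thiamet G at 200 uM as maximum inhibition.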

Emax [1] [%]	IC50 [1] [nM]	Emax [2] [%]	EC50 [2] [nM]	Enzymatic Emax (%) [1] [%]	Cellular Emax (%) [2] [%]	SMILES
95	126	48	631	–	–	C[C@@H](c1ccc2c(n1)OCCO2)N1CCC(Oc2ccc(C(N)=O)nn2)CC1 (single isomer, unassigned) [Compound 106]
96	12.6	75	200	–	–	CC(c1nc2c(cc1F)OCCO2)N1CCC(Oc2cnc(C(F)(F)F)nc2)CC1 (stereo not shown) [Compound 168]
99	398	39	> 1000	–	–	Cc1cc(OCC2CCN(C(C)c3ccc4c(n3)OCCO4)CC2)cc(C)n1 (stereo not shown) [Compound 75]
58	6310	-2	> 1000	–	–	Cc1cc(OC2CCN([C@@H](C)c3nc4c(cc3F)OCCO4)CC2)cc(C)n1 (single isomer, unassigned) [Compound 149]
89	1260	38	–	–	–	Cc1cc(OC2CCN(C(C)c3cnc4c(c3)OCC4)CC2)cc(C)n1 (stereo not shown) [Compound 58]
92	126	34	> 1000	–	–	CC(c1ccc2c(n1)OCCO2)N1CCC(Oc2cnc(C3CCC3)nc2)CC1 (stereo not shown) [Compound 163]
92	1000	17	> 1000	–	–	Cc1cc(OC2CCN(C(C)c3cnc4c(c3)OCCO4)CC2)cc(C(F)(F)F)n1 (stereo not shown) [Compound 19]
94	100	53	501	–	–	Cc1cc(OC2CCN(C(C)c3ccc4c(n3)OCCO4)CC2)ncc1C#N (stereo not shown) [Compound 101]
96	100	59	631	–	–	Cc1cc(OC2CCN(C(C)c3ccc4c(n3)OCCO4)CC2)ccn1 (stereo not shown) [Compound 45]
95	501	10	> 1000	–	–	COc1cc(C#N)cnc1OC1CCN(C(C)c2ccc3c(n2)OCCO3)CC1 (stereo not shown) [Compound 102]
99	12.6	77	200	–	–	Cc1cncc(OC2CCN(C(C)c3nc4c(cc3F)OCCO4)CC2)n1 (stereo not shown) [Compound 109]
94	15.8	100	100	–	–	C[C@@H](c1nc2c(cc1F)OCCO2)N1CCC(Oc2ccc(C#N)nn2)CC1 (single isomer, unassigned) [Compound 86]
99	20	81	288	–	–	CC(c1nc2c(cc1F)OCCO2)N1CCC(Oc2ccc(C#N)cn2)CC1 (stereo not shown) [Compound 49]
–	> 10000	–	> 1000	29	−14	Cc1cc(OC2CCN(C(C)c3ccc4c(n3)OCCO4)CC2)cc(C)n1 (single isomer, unassigned) [Compound 2]
94	12.6	75	63.1	–	–	Cc1cc(COC2CCN(C(C)c3nc4c(cc3F)OCCO4)CC2)cc(C)n1 (stereo not shown) [Compound 159]
–	12.6	–	126	100	83	COc1cc(OC2CCN(C(C)c3ccc4c(n3)OCCO4)CC2)cc(C)n1 (single isomer, unassigned) [Compound 54]
97	15.8	62	355	–	–	Cc1cnc(C)c(OC2CCN(C(C)c3nc4c(cc3F)OCCO4)CC2)n1 (stereo not shown) [Compound 87]
101	15.8	64	251	–	–	Cc1cc(OC2CCN(C(C)c3cc4nc(C)sc4cc3F)CC2)nc(C)n1 (stereo not shown) [Compound 38]
96	100	59	398	–	–	Cc1cc(OC2CCN(C(C)c3ccc4c(n3)OCCO4)CC2)c(F)c(C)n1 (stereo not shown) [Compound 121]
63	6310	24	> 1000	–	–	Cc1cc(OC2(CF)CCN(C(C)c3ccc4c(n3)OCCO4)CC2)cc(C)n1 (stereo not shown) [Compound 132]

Emax [1] [%]	IC50 [1] [nM]	Emax [2] [%]	EC50 [2] [nM]	Enzymatic Emax (%) [1] [%]	Cellular Emax (%) [2] [%]	SMILES
102	158	77	158	–	–	Cc1cc(OC2CCN(C(C)c3cnc4c(c3)OCCN4)CC2)cc(C)n1 (stereo not shown) [Compound 34]
97	398	16	> 1000	–	–	CC(c1ccc2c(n1)OCCO2)N1CCC(Oc2ncc(C#N)cc2F)CC1 (stereo not shown) [Compound 105]
100	63.1	68	331	–	–	CC(C)c1ncc(OC2CCN(C(C)c3ccc4c(n3)OCCO4)CC2)cn1 (stereo not shown) [Compound 119]
–	3980	–	> 1000	59	−8	COc1cc(OC2CCN(C(C)c3ccc4sc(C)nc4n3)CC2)cc(C)n1 (single isomer, unassigned) [Compound 23]
98	12.6	83	63.1	–	–	Cc1cc(OC2CCN(C(C)c3nc4c(cc3F)OCCO4)CC2)ccn1 (stereo not shown) [Compound 162]
97	63.1	83	126	–	–	CCc1cc(OC2CCN(C(C)c3ccc4c(n3)OCCO4)CC2)cc(C)n1 (stereo not shown) [Compound 129]
96	10	82	95.5	–	–	Cc1ccc(OC2CCN(C(C)c3nc4c(cc3F)OCCO4)CC2)cn1 (stereo not shown) [Compound 94]
99	100	44	> 1000	–	–	CC(c1ccc2c(n1)OCCO2)N1CCC(Oc2cncc(F)c2)CC1 (stereo not shown) [Compound 74]
93	100	42	–	–	–	Cc1ncc(OC2CCN(C(C)c3ccc4c(n3)OCCO4)CC2)cc1F (stereo not shown) [Compound 152]
90	2000	18	> 1000	–	–	Cc1cc(CC2(F)CCN(C(C)c3ccc4c(n3)OCCO4)CC2)cc(C)n1 (stereo not shown) [Compound 73]
98	31.6	64	100	–	–	Cc1cc(OC2CCN(C(C)c3ccc4c(n3)OCCO4)CC2)cc(OC(C)C)n1 (stereo not shown) [Compound 124]
101	50.1	55	813	–	–	Cc1cc(OC2CCN(C(C)c3ccc4sc(C)nc4n3)CC2)cc(C(F)(F)F)n1 (stereo not shown) [Compound 21]
98	398	46	> 1000	–	–	Cc1cccnc1OC1CCN(C(C)c2ccc3c(n2)OCCO3)CC1 (stereo not shown) [Compound 70]
96	12.6	87	39.8	–	–	Cc1cc(COC2CCN(C(C)c3nc4nc(C)sc4cc3F)CC2)cc(C)n1 (stereo not shown) [Compound 160]
98	50.1	87	251	–	–	CC(c1ccc2c(n1)OCCO2)N1CCC(Oc2cnc(C3CC3)nc2)CC1 (stereo not shown) [Compound 120]
101	3.16	72	39.8	–	–	COc1cc(OC2CCN(C(C)c3nc4nc(C)sc4cc3F)CC2)cc(C)n1 (stereo not shown) [Compound 79]
101	100	21	> 1000	–	–	CC(c1ccc2c(n1)OCCO2)N1CCC(Oc2ccc(C(F)(F)F)cn2)CC1 (stereo not shown) [Compound 42]
98	100	59	501	–	–	Cc1cc(C)c(OC2CCN(C(C)c3nc4c(cc3F)OCCO4)CC2)nn1 (stereo not shown) [Compound 88]
97	316	31	> 1000	–	–	CC(c1ccc2c(n1)OCCO2)N1CCC(Oc2cnc(C(F)(F)F)cn2)CC1 (stereo not shown) [Compound 114]
